Assay results: US11666600B2, “Methods for culturing and/or differentiating hematopoietic stem cells into progenitors and uses thereof” (HEMA-QUEBEC, priority 2015, dated 2023)
Values joined by “and” are separate entries in the source; they are usually repeats but may differ in a detail not shown here. Equal entries are not always repeated.

Key:
[1] = tested on: CD34+ cells from human umbilical cord blood; assay: Culture of cord blood CD34+ cells towards the megakaryocytic lineage (StemSpan ACF + BS1), flow cytometry; format: cell-based; settings: for Percentage of cells bearing CD34+ / Percentage of cells bearing CD34+/CD41+ / Percentage of cells bearing CD34+/CD41− / Percentage of cells bearing CD41+ / Percentage of cells bearing CD41+/CD42+ / Percentage of cells bearing CD42+ / Percentage of cells bearing CD45RA+ / Percentage of cells bearing CD235+: ACF + BS1
Protocol: CD34+ cells were isolated from human umbilical cord blood by positive selection according to standard procedures. Purified CD34+ cells from either single units or pooled from several units of cord blood were seeded in 1 mL of the appropriate culture medium in 24-well plates at a density of approximately 10^5 cells/mL. Cells were maintained at a density of 10^5-10^6 cells/mL throughout the culture by dilution and/or medium replacement.
For culture and differentiation towards the megakaryocytic lineage, purified CD34+ cells were cultured in StemSpan™ ACF medium ([…]™ Technologies, Vancouver, BC, Canada) supplemented with antibiotics and the “BS1” cytokine cocktail described previously (Cortin et al, 2005), and cell counts were performed on days 6, 10, and 14.
Cell counts and viability were measured using the NucleoCounter NC-250™ Viability and Cell Count Assay system (ChemoMetec Inc., Davis, Calif.), according to the manufacturer's instructions.
Cell phenotypes were determined by flow cytometry on the indicated days using the following panel of labeled primary antibodies: CD34-FITC, CD45RA-APC, CD41a-APC, CD42b-PE, and CD235-PE.
CD34+ cells were isolated and cultured for differentiation towards the megakaryocytic lineage as generally described in Example 1.2. […] Flow cytometry was used to monitor the expansion of CD34+/CD41+ MKP cells over time, as described in Example 1.3.
More thorough cell phenotypic profiles of the CD34+ cells isolated and cultured in Example 2 were determined on days 6, 10 and 14 by flow cytometry as described in Example 1.3.

[2] = tested on: Human bone marrow CD34+ cells; assay: Expansion of CD34+/CD41+ megakaryocytic progenitors from bone marrow CD34+ cells; format: cell-based; settings: 39° C. + PIC 35 nM; 14 days; SFEM + BS1; FIG. 6
Protocol: Human bone marrow and G-CSF-mobilized peripheral blood CD34+ cells were purchased from AllCells.
Human CD34+-enriched cells (purity 90%) were seeded in 24-well plates at 100 000 cells/mL in expansion medium consisting of either (1) StemSpan™ ACF (ACF; […] Technologies) supplemented with the OMPC cytokine cocktail (Robert et al., 2011), or (2) StemSpan™ SFEM ([…] Technologies) supplemented with the BS1 megakaryocyte expansion and differentiation cocktail (Cortin et al., 2005). OMPC consists of 35 ng/mL thrombopoietin (TPO; Feldan Therapeutics), 10 ng/mL stem cell factor (SCF; Peprotech), and 11 ng/mL human FMS-like tyrosine kinase 3 ligand (FLT3, Peprotech). […]
Cellular counts and viability were determined by adding Solution 18 (Acridine Orange and DAPI solution, ChemomMetec) and using NucleoCounter™ NC-250 for detection (ChemomMetec).
For cells expanded in conditions favoring differentiation towards the MK lineage, surface markers were detected using the following antibodies: CD34-FITC, CD41a-APC and CD42b-PE. […] All samples were analyzed on an Accuri™ C6 flow cytometer (BD Biosciences), and raw data were analyzed with FCS Express 5 Flow Research Edition software from at least 15 000 viable cell events acquired for each sample. […]
Cellular counts and viability were determined as described in Example 6.5.

## Cl.Cn1nnc(-c2ccc3c(c2)[nH]c2nc(Cc4ccccc4)nc(N[C@H]4CC[C@H](N)CC4)c23)n1 [PIC, (1r,4r)-N1-(2-benzyl-7-(2-methyl-2H-tetrazol-5-yl)-9H-pyrimido[4,5-b]indol-4-yl)cyclohexane-1,4-diamine hydrochloride]
[1]; 39° C. + PIC 35 nM, data not shown
  purity of CD34+/CD41+ cells: above 40%
[1]; Day 6, 37° C. + PIC 35 nM
  Percentage of cells bearing CD34+: 98.38%
  Percentage of cells bearing CD34+/CD41+: 29.54%
  Percentage of cells bearing CD34+/CD41−: 68.55%
  Percentage of cells bearing CD41+: 29.27%
  Percentage of cells bearing CD41+/CD42+: 1.71%
  Percentage of cells bearing CD42+: 2.48%
  Percentage of cells bearing CD45RA+: 71.55%
  Percentage of cells bearing CD235+: 11.67%
[1]; Day 6, 39° C. + PIC 35 nM
  Percentage of cells bearing CD34+: 97.19%
  Percentage of cells bearing CD34+/CD41+: 48.85%
  Percentage of cells bearing CD34+/CD41−: 48.02%
  Percentage of cells bearing CD41+: 49.84%
  Percentage of cells bearing CD41+/CD42+: 7.95%
  Percentage of cells bearing CD42+: 8.31%
  Percentage of cells bearing CD45RA+: 58.97%
  Percentage of cells bearing CD235+: 19.51%
[1]; Day 10, 37° C. + PIC 35 nM
  Percentage of cells bearing CD34+: 84.39%
  Percentage of cells bearing CD34+/CD41+: 20.21%
  Percentage of cells bearing CD34+/CD41−: 64.40%
  Percentage of cells bearing CD41+: 24.84%
  Percentage of cells bearing CD41+/CD42+: 1.30%
  Percentage of cells bearing CD42+: 2.55%
  Percentage of cells bearing CD45RA+: 76.43%
  Percentage of cells bearing CD235+: 7.45%
[1]; Day 10, 39° C. + PIC 35 nM
  Percentage of cells bearing CD34+: 87.29%
  Percentage of cells bearing CD34+/CD41+: 67.10%
  Percentage of cells bearing CD34+/CD41−: 21.37%
  Percentage of cells bearing CD41+: 73.31%
  Percentage of cells bearing CD41+/CD42+: 17.09%
  Percentage of cells bearing CD42+: 17.30%
  Percentage of cells bearing CD45RA+: 46.94%
  Percentage of cells bearing CD235+: 14.40%
[1]; Day 14, 37° C. + PIC 35 nM
  Percentage of cells bearing CD34+: 69.53%
  Percentage of cells bearing CD34+/CD41+: 11% and 11.01%
  Percentage of cells bearing CD34+/CD41−: 54.97%
  Percentage of cells bearing CD41+: 23.65%
  Percentage of cells bearing CD42+: 3.02%
  Percentage of cells bearing CD45RA+: 61.90%
  Percentage of cells bearing CD235+: 2.90%
[1]; Day 14, 39° C. + PIC 35 nM
  Percentage of cells bearing CD34+: 88.56%
  Percentage of cells bearing CD34+/CD41+: 76.5% and 76.46%
  Percentage of cells bearing CD34+/CD41−: 10.25%
  Percentage of cells bearing CD41+: 87.90%
  Percentage of cells bearing CD42+: 27.09%
  Percentage of cells bearing CD45RA+: 27.09%
  Percentage of cells bearing CD235+: 12.61%
[1]; Day 14, 39° C. + PIC 35 nM, hydrochloride
  Percentage of cells bearing CD41+/CD42+: 27% and 27.04%
[2]
  combined use of mild hyperthermia and PIC on expansion of CD34+/CD41+ cells: synergistic effect
